Values quoted from earlier work in patent US20260108502A1, “ORAL DELIVERY FORMULATIONS USING SELF EMULSIFYING GRANULES AND LIPID BASED GRANULES” (BOARD OF REGENTS, THE UNIVERSITY OF TEXAS SYSTEM, priority 2024, published 2026).

CC(C)c1nc(CN(C)C(=O)N[C@H](C(=O)N[C@@H](Cc2ccccc2)C[C@H](O)[C@H](Cc2ccccc2)NC(=O)OCc2cncs2)C(C)C)cs1 [Ritonavir]
strongest basic pKa: 2.84
